Measured values taken from US20050130947A1, “Formulations for inhalation” (priority 2002, published 2005).

How the values were obtained:
[1] = Pharmacokinetics after intravenous and oral dosing in rats; details: rat, IV 0.1 mg/kg
[2] = tested on: ovalbumin sensitised Brown Norway rat eosinophilia model; assay: Ovalbumin sensitised Brown Norway rat eosinophilia model; assay type: in vivo; details: single 30 μg intra-tracheal dose, suspension in saline, 30 min prior to ovalbumin challenge
Method: Pharmacological activity in vivo was assessed in an ovalbumin sensitised Brown Norway rat eosinophilia model. This model is designed to mimic allergen induced lung eosinophilia, a major component of lung inflammation in asthma.

[3] = Pharmacokinetics after intra-tracheal dry powder dosing in the pig; assay type: in vivo; details: for AUC (0-inf): compound (I) AUC calculated with IV plasma half-life
Method: Serial blood samples were taken for up to 8 h following dosing.

[4] = tested on: rat model of thymus involution; assay: Rat model of thymus involution; assay type: in vivo; details: 3 daily IT doses of 100 μg

CCC(=O)O[C@]1(C(=O)SCF)[C@H](C)C[C@H]2[C@@H]3C[C@H](F)C4=CC(=O)C=C[C@]4(C)[C@@]3(F)[C@@H](O)C[C@@]21C [Fluticasone propionate, 6α, 9α-Difluoro-17α-(1-oxopropoxy)-11β-hydroxy-16α-methyl-3-oxo-androsta-1,4-diene-17β-carbothioic acid S-fluoromethyl ester, reference compound]
plasma clearance [1]: 45.2 mL/min/kg
inhibition of lung eosinophilia [2]: 41%
Cmax ([3]; Pig 1, 1 mg intra-tracheal dry powder blend in lactose): 0.277 ng/mL
AUC (0-inf) ([3]; Pig 1, 1 mg intra-tracheal dry powder): 0.455 ng·h/mL
Cmax ([3]; Pig 2, 1 mg intra-tracheal dry powder blend in lactose): 0.218 ng/mL
AUC (0-inf) ([3]; Pig 2, 1 mg intra-tracheal dry powder): 0.495 ng·h/mL
time after dosing up to which quantifiable in plasma ([3]; anaesthetised pigs, 1 mg intra-tracheal, LLOQ 10 pg/mL compound (I), 20 pg/mL fluticasone propionate): up to 8 hours
reduction of thymus weight [4]: 78%
